Counter-ions that a name gives are not always drawn.
Columns and labels:
[1] = in comparison to a 15 mg dose of hydrocodone
[2] = tested on: opioid receptors; details: cited from earlier work
[3] = cited from earlier work

Row | Compound | Equianalgesic Calculated Dose [1] [mg] | other results
1 | CN1CC[C@]23CCCC[C@H]2[C@H]1Cc1ccc(O)cc13 [Levorphanol, levorphanol] | 1.8 | 
2 | COc1ccc2c3c1OC1C(=O)CC[C@H]4[C@@H](C2)N(C)CC[C@]314 (stereo partly drawn) [Hydrocodone, 4,5-epoxy-3-methoxy-17-methylmorphinan-6-one] | 15.0 | 
3 | O=C1CC[C@@]2(O)[C@H]3Cc4ccc(O)c5c4[C@@]2(CCN3CC2CC2)[C@H]1O5 [naltrexone] |  | blockade of morphine effects ([2]; normal volunteers, three 100-mg doses, MS Contin): blocked
4 | C[C@H]1[C@H]2Cc3ccc(O)cc3[C@]1(C)CCN2CC1CC1 [cyclazocine] |  | duration of action after oral administration ([2]; in vivo, po): ~24 h
5 | CCC(=O)C(CC(C)N(C)C)(c1ccccc1)c1ccccc1 (stereo not drawn) [Methadone, methadone] | 9.0 | 
6 | O=C1CC[C@@]2(O)[C@H]3Cc4ccc(O)c5c4[C@@]2(CCN3CC2CC2)[C@H]1O5 [hydrochloride salt of naltrexone, naltrexone hydrochloride] |  | solubility in water [3]: about 100 mg/cc
7 | COc1ccc2c3c1OC1C(=O)CC[C@@]4(O)[C@@H](C2)N(C)CC[C@]314 (stereo partly drawn) [Oxycodone, 4,5-epoxy-14-hydroxy-3-methoxy-17-methylmorphinan-6-one] | 13.5 | 
8 | meperidine | 135.0 | 
9 | COc1ccc2c3c1O[C@H]1[C@@H](O)C=C[C@H]4[C@@H](C2)N(C)CC[C@@]341 [Codeine, codeine] | 90.0 | 

From patent publication US20140037721A1, “Pharmaceutical Composition” (Alpharma pharmaceuticals LLC, priority 2007, published 2014)
